Data as given in EP0741709B1, “AROMATIC 2-AMINO-IMIDAZOLE DERIVATIVES AS ALPHA-2A ADRENOCEPTOR AGONISTS” (Allergan Sales, Inc., priority 1994, dated 1995).

Target: T1, human α2A (Homo sapiens, UniProt P08913)
T1 construct: expressed in transfected cells; host or cells: CHO (CHO-C10)
T1 sequence (P08913 1-465): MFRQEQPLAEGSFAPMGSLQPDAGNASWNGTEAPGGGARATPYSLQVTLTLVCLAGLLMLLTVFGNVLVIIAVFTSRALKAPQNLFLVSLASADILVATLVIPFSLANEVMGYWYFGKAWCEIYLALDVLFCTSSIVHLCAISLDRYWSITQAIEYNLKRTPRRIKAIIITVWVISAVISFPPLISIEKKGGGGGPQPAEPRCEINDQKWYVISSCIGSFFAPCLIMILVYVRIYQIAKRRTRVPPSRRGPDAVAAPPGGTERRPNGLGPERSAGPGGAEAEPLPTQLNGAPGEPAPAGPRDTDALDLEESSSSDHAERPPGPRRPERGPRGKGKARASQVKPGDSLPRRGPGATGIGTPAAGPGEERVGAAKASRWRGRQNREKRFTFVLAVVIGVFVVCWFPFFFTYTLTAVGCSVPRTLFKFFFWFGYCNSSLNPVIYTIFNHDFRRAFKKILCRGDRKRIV
Experiment: Receptor binding assay, [3H]rauwolscine, CHO-C10 cell membranes
Conditions: 22°C, 30 minutes
Procedure: Cell preparation: […] Cells were harvested by scraping and placed into cold buffer of the following composition: 50 mM Tris-HCl, 5 mM EDTA, pH 7.4). Cells were then homogenized with a Polytron homogenizer for 2 X 10 sec at setting #7, and centrifuged for 20 minutes at 49,000 x g. The pellet fraction was washed (resuspended in Tris-HCl, pH 8 buffer and centrifuged for 15-20 minutes at 49,000 x g) 2 times and stored at -100°C until binding assay. Binding Studies: […] Frozen membrane pellet was resuspended in 25 mM glycine/glycine, pH 7.5 and incubated with radioligand under the following conditions: […] RKC-[^3H]rauwolscine, 0°C, 120 minutes; and, HCC-[^3H]prazosin, 22°C, 30 minutes in a final volume of 500 ul. At the end of the incubation period, the samples were filtered through glass filters (Whatman GF/B) in a 96 well cell harvester and rapidly washed four times with 4 mL of iced-cold 50 mM Tris-HCl buffer. The filters were then oven dried and transferred to scintillation vials containing 10 mL of Beckman's Ready Protein® scintillation cocktail for counting. […] Protein concentrations were determined with a protein assay kit from Bio Rad. Binding isotherms, equilibrium dissociation and affinity constants were analyzed and determined by the non-linear least squares curve fitting programs EBDA (BioSoft) or AccuFit Competition/Saturation by Beckman. Cell preparation: […] Cells were harvested by scraping and placed into cold buffer of the following composition: 50 mM Tris-HCl, 5 mM EDTA, pH 7.4). Cells were then homogenized with a Polytron homogenizer for 2 X 10 sec at setting #7, and centrifuged for 20 minutes at 49,000 x g. The pellet fraction was washed (resuspended in Tris-HCl, pH 8 buffer and centrifuged for 15-20 minutes at 49,000 x g) 2 times and stored at -100°C until binding assay. […] Frozen membrane pellet was resuspended in 25 mM glycine/glycine, pH 7.4 and incubated with radioligand under the following conditions: […] At the end of the incubation period, the samples were filtered through glass fiber filters (Whatman GF/B) in a 96 well cell harvester and rapidly washed four times with 4 mL of iced-cold 50 mM Tris-CHl buffer. The filters were then oven dried and transferred to scintillation vials containing 5 mL of Beckman's Ready Protein® scintillation cocktail for counting. […] Protein concentrations were determined with a protein assay kit from Bio Rad. Binding isotherms, equilibrium dissociation and affinity constants were analyzed and determined by the non-linear least squares curve fitting programs AccuFit Competition/Saturation by Beckman.

Structure (SMILES)	Ki
Clc1cccc(Cl)c1Nc1ncc[nH]1	95 nM
Cc1c(Nc2ncc[nH]2)ccc2c1NCCO2	6.3 nM
Clc1ccccc1Nc1ncc[nH]1	287 nM
Cc1c(Nc2ncc[nH]2)ccc2nccnc12	31 nM
c1ccc(Nc2ncc[nH]2)cc1	394 nM
Brc1ccccc1Nc1ncc[nH]1	214 nM

Continued, values first:

Ki	Structure (SMILES)
73 nM	Cc1ccccc1Nc1ncc[nH]1
10 nM	COc1ccc(Nc2ncc[nH]2)c(C)c1
39 nM	c1cc2c(c(Nc3ncc[nH]3)c1)CCCC2
1.7 nM	Cc1c(Nc2ncc[nH]2)ccc2c1OCCO2
512 nM	Brc1c(Nc2ncc[nH]2)ccc2nccnc12
